Experimental data taken from patent US20120035161A1, “Novel Compositions and Methods of Treating Diseases Using the Same” (CORRIDOR PHARMACEUTICALS, INC., priority 2006, published 2012).
Values joined by “and” are separate entries in the source; they are usually repeats but may differ in a detail not shown here. Equal entries are not always repeated.

Legend:
[1] = system: Serotonin (5-Hydroxytryptamine) 5-HT1, Non-Selective; test: Assay 271000 radioligand binding, 5-HT1 non-selective; set-up: species or system Wistar Rat
Method: (§1) The methods employed in this study have been adapted from the scientific literature to maximize reliability and reproducibility. Reference standards were run as an integral part of each assay to ensure the validity of the results obtained. Assays were performed under conditions as described below. Where presented, IC50 values were determined by a non-linear, least squares regression analysis using the Data Analysis Toolbox (MDL Information Systems, San Leandro, Calif., USA). Where inhibition constants (Ki) are presented, the Ki values were calculated using the equation of Cheng and Prusoff (Cheng, Y., Prusoff, W. H., Biochem. Pharmacol. 22:3099-3108, 1973) using the observed IC50 of the tested compound, the concentration of radioligand employed in the assay, and historical values for the KD of the ligand. Where presented, the Hill coefficient (nu), defining the slope of the competitive binding curve, was calculated using the Data Analysis Toolbox.

[2] = target: T1, Serotonin (5-Hydroxytryptamine) 5-HT1A (Homo sapiens, UniProt P08908); test: Radioligand binding, 5-HT1A ([3H] 8-OH-DPAT)
T1 construct: expressed in transfected cells; host or cells: CHO cells
T1 sequence (P08908 1-422): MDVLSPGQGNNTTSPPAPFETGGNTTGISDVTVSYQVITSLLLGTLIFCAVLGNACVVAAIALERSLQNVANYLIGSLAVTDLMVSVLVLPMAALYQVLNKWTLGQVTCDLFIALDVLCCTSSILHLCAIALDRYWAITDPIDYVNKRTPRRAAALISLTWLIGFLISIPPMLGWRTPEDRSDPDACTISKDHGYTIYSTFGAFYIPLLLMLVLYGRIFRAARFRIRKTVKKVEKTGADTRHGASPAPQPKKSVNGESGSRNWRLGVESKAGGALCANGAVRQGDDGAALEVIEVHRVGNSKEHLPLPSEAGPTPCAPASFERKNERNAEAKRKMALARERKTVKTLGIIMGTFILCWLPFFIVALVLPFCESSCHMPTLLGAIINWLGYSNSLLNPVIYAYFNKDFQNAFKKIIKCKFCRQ
Method: as §1

[3] = system: Serotonin (5-Hydroxytryptamine) 5-HT2, Non-Selective; test: Assay 271600 radioligand binding, 5-HT2 non-selective; set-up: species or system Wistar Rat
Method: as §1

[4] = system: cryopreserved mixed gender human hepatocytes; test: Hepatocyte stability assay; format: in vitro ADME; conditions: 5 μM test compound
Method: Test compounds (5 μM) were incubated with cryopreserved mixed gender human hepatocytes pooled from at least 3 donors. Cell viability of hepatocytes was assessed by a Trypan Blue assay prior to the initiation of the stability assay. The final hepatocyte cell density was 1.5×10^6 viable cells/mL, Samples were taken at 2 time points: 0 and 60 minutes. As positive controls, testosterone (20 μM) and 7-hydroxy-coumarin (100 μM) were incubated and sampled at 5 time points: 0, 15, 30, 60, and 120 minutes. Aliquots were removed and combined (50/50) with acetonitrile to terminate the reaction. Samples were mixed for 10 minutes and centrifuged. The supernatants were transferred to vial for analysis by HRMS. In this assay, both test compound and a des-glycine metabolite (M1) are quantified based on peak area response ratios.
The enzymatic activities of the human cryopreserved hepatocytes used in this study were verified in parallel by determining the disappearance of testosterone (expressed as half-life) and the formation of 7-hydroxycoumarin glucuronide and 7-hydroxycoumarin sulfate (expressed as a formation rate).

[5] = system: Monocrotaline model of pulmonary arterial hypertension; test: Monocrotaline model of pulmonary arterial hypertension (PAH); format: in vivo, Sprague-Dawley rats
Method: Adult male Sprague-Dawley rats (287±4 g) were obtained from Charles River Laboratories (Raleigh, N.C.). Animals housed individually in a temperature/humidity controlled room with 12-hour light/dark cycles had free access to water and food and were acclimated for one week prior to the study. All experimental protocols were approved by the University of Illinois at Chicago Care and Use Committee, and all experiments were conducted in accordance with the NIH guidelines for animal welfare.
Rats were randomly assigned to one of five experimental groups (n=10 per group). Rats in groups 1 and 2 served as healthy controls; the remaining rats were injected subcutaneously on Day 0 with 60 mg/kg body weight monocrotaline, the toxic alkaloid of C. spectabilis (dissolved in DMSO at a concentration of 60 mg/mL, Sigma Aldrich, St. Louis, Mo.). On days 1-21, rats were dosed via oral gavage (2 mL/kg) with vehicle (PBS), or ICI-735 at 1 mg/kg or 10 mg/kg. Rats were weighed daily, and the dosages were adjusted appropriately. […]
After the lungs were harvested, they were instilled with 10% neutral buffered formalin and immersed in the same fixative. The left and right caudal lung lobes were trimmed to produce six transverse samples per rat and these samples were routinely processed and embedded in paraffin blocks. Sections (approximately 5 μm thick) were stained with Verhoeff's elastin/eosin stain and examined by light microscopy, Histopathological findings were classified as: 1-alveolar inflammation and septal remodeling, 2-perivascular inflammation and edema, 3-perivascular fibrosis, and 4-arteriolar medial hypertrophy. The findings were graded by a pathologist without knowledge of treatment group assignment as 0 (not present), 1 (minimal), 2 (mild), 3 (moderate), or 4 (marked).
The distribution of each finding, if present was classified as multifocal or diffuse. The degree of muscularization of small peripheral pulmonary arteries was assessed by examination of sections immunohistochemically reacted with an anti-alpha-smooth muscle actin antibody (rabbit polyclonal ab5694 diluted 1:100, Abeam, Cambridge, Mass.). […]

[6] = MCT + 1 mg/kg ICI-735, 21 days, n = 10
[7] = MCT + 10 mg/kg ICI-735, 21 days, n = 10
[8] = MCT rats, daily oral 10 mg/kg for 21 days, p<0.05
[9] = SI + 10 mg/kg ICI-735, 21 days, n = 10

NCC(=O)NCCN1CCN(CCCN2c3ccccc3Sc3ccc(C(F)(F)F)cc32)CC1 [ICI-735]
% INHIBITION ([1]; 0.1 μM): 16% | % INHIBITION ([1]; 10 μM): 63% | inhibition at 0.1 µM ([2]; 0.1 μM): 14% | inhibition at 10 µM ([2]; 10 μM): 89% | % INHIBITION ([3]; 0.1 μM): 62% | % INHIBITION ([3]; 10 μM): 91% | Relative Level (%) ([4]; T = 0 minutes): 99.5% and 100.5% | Peak Areas ([4]; T = 60 minutes): 8.39E+06 and 8.79E+06 | Relative Level (%) ([4]; T = 60 minutes): 89.6% and 92.4% | physical or behavioral drug-related toxicity, daily clinical evaluation ([5]; 1 or 10 mg/kg oral, 21 days): no evidence | Incidence: Alveolar inflammation/septal remodeling, severity score 1 [5, 6]: 3 | Incidence: Alveolar inflammation/septal remodeling, severity score 2 [5, 6]: 4 | Incidence: Alveolar inflammation/septal remodeling, severity score 3 [5, 6]: 1 | Incidence: Alveolar inflammation/septal remodeling, severity score 4 [5, 6]: 2 | Incidence: Arteriolar medial hypertrophy, severity score 1 [5, 6]: 1 | Incidence: Arteriolar medial hypertrophy, severity score 2 [5, 6]: 6 | Incidence: Arteriolar medial hypertrophy, severity score 3 [5, 6]: 3 | Incidence: Perivascular flbrosis, severity score 0 [5, 6]: 2 | Incidence: Perivascular flbrosis, severity score 1 [5, 6]: 5 | Incidence: Perivascular flbrosis, severity score 2 [5, 6]: 3 | Incidence: Perivascular inflammation/edema, severity score 1 [5, 6]: 4 | Incidence: Perivascular inflammation/edema, severity score 2 [5, 6]: 5 | Incidence: Perivascular inflammation/edema, severity score 3 [5, 6]: 1 | Incidence: Alveolar inflammation/septal remodeling, severity score 1 [5, 7]: 6 | Incidence: Alveolar inflammation/septal remodeling, severity score 2 [5, 7]: 3 | Incidence: Alveolar inflammation/septal remodeling, severity score 3 [5, 7]: 1 | Incidence: Arteriolar medial hypertrophy, severity score 0 [5, 7]: 3 | Incidence: Arteriolar medial hypertrophy, severity score 1 [5, 7]: 5 | Incidence: Arteriolar medial hypertrophy, severity score 2 [5, 7]: 2 | Incidence: Perivascular flbrosis, severity score 0 [5, 7]: 7 | Incidence: Perivascular flbrosis, severity score 1 [5, 7]: 3 | Incidence: Perivascular inflammation/edema, severity score 1 [5, 7]: 8 | Incidence: Perivascular inflammation/edema, severity score 2 [5, 7]: 2 | effects of MCT on PAP, RVSP and RV/BW ([5]; MCT rats, 1 mg/kg): did not attenuate | incidences and severities of perivascular fibrosis and arteriolar medial hypertrophy ([5]; MCT rats, 10 mg/kg): marked decrease | severities of alveolar inflammation and septal remodeling, and perivascular inflammation and edema ([5]; MCT rats, 10 mg/kg, compared to MCT/vehicle): clearly diminished | reduction of MCT-induced elevation of PAP [5, 8]: 75% | reduction of MCT-induced elevation of RV/BW [5, 8]: 81% | reduction of MCT-induced elevation of RVSP [5, 8]: 78% | degree of muscularization of pulmonary arterioles compared with SI/vehicle controls ([5]; MCT rats, high-dose): no significant differences | Incidence: Alveolar inflammation/septal remodeling, severity score 0 [5, 9]: 1 | Incidence: Alveolar inflammation/septal remodeling, severity score 1 [5, 9]: 9 | Incidence: Arteriolar medial hypertrophy, severity score 0 [5, 9]: 10 | Incidence: Perivascular flbrosis, severity score 0 [5, 9]: 10 | Incidence: Perivascular inflammation/edema, severity score 0 [5, 9]: 4 | Incidence: Perivascular inflammation/edema, severity score 1 [5, 9]: 5 | Incidence: Perivascular inflammation/edema, severity score 2 [5, 9]: 1 | changes in PAP, RVSP or RV/BW compared with vehicle controls ([5]; SI rats, 10 mg/kg): no changes | Mean arterial pressure (MAP) compared with controls ([5]; all ICI-735-treated groups): unmodified | heart rate (HR) compared with controls ([5]; all ICI-735-treated groups): unmodified
